Experimental data from ChEMBL document CHEMBL3046616, “Design, synthesis, and biological activities of milbemycin analogues” (2011).
In brackets after ≈: the same amount, converted by molar mass.

What was measured:
Assay type in all cases: functional
Mythimna separata [1] = experiment: Insecticidal activity against Mythimna separata (Oriental armyworm) fourth-instar larvae reared compound pre-treated corn leaves assessed as insect mortality measured 2 days post compound dose
Mythimna separata [2] = experiment: Insecticidal activity against Mythimna separata (Oriental armyworm) fourth-instar larvae reared compound pre-treated corn leaves assessed as insect mortality at 1 mg/L measured 2 days post compound dose
Mythimna separata [3] = experiment: Insecticidal activity against Mythimna separata (Oriental armyworm) fourth-instar larvae reared compound pre-treated corn leaves assessed as insect mortality at 0.5 mg/L measured 2 days post compound dose
Aphis fabae [4] = experiment: Insecticidal activity against Aphis fabae (black bean aphid infested soybean tender shoots measured 48 hr post compound dose by modified FAO dip method; details: for LC50: Aphis fabae, 48 h
Aphis fabae [5] = experiment: Insecticidal activity against Aphis fabae (black bean aphid) infested soybean tender shoots at 0.125 mg/L measured 48 hr post compound dose by modified FAO dip method
Mythimna separata [6] = experiment: Insecticidal activity against fourth-instar larvae of Mythimna separata (Oriental armyworm) reared on compound pre-treated corn leaves assessed as insect mortality at 0.03125 mg/L measured 2 days post compound dose
Aphis fabae [7] = experiment: Insecticidal activity against Aphis fabae (black bean aphid) infested soybean tender shoots at 0.0625 mg/L measured 48 hr post compound dose by modified FAO dip method
Mythimna separata [8] = experiment: Insecticidal activity against fourth-instar larvae of Mythimna separata (Oriental armyworm) reared on compound pre-treated corn leaves assessed as insect mortality at 0.125 mg/L measured 2 days post compound dose
Mythimna separata [9] = experiment: Insecticidal activity against fourth-instar larvae of Mythimna separata (Oriental armyworm) reared on compound pre-treated corn leaves assessed as insect mortality at 0.0625 mg/L measured 2 days post compound dose
Mythimna separata [10] = experiment: Insecticidal activity against Mythimna separata (Oriental armyworm) fourth-instar larvae reared compound pre-treated corn leaves assessed as insect mortality at 0.25 mg/L measured 2 days post compound dose
Aphis fabae [11] = experiment: Insecticidal activity against Aphis fabae (black bean aphid) infested soybean tender shoots at 0.25 mg/L measured 48 hr post compound dose by modified FAO dip method
Aphis fabae [12] = experiment: Insecticidal activity against Aphis fabae (black bean aphid) infested soybean tender shoots at 1 mg/L measured 48 hr post compound dose by modified FAO dip method
Aphis fabae [13] = experiment: Insecticidal activity against Aphis fabae (black bean aphid) infested soybean tender shoots at 0.5 mg/L measured 48 hr post compound dose by modified FAO dip method
Tetranychus cinnabarinus = experiment: Insecticidal activity against Tetranychus cinnabarinus (carmine spider mite) […] assessed as larvicidal activity at 0.006 mg/L after 48 hr
Aphis fabae [14] = experiment: Insecticidal activity against bean Aphis fabae (black bean aphid) infested soybean tender shoots at 0.03125 mg/L measured 48 hr post compound dose by modified FAO dip method
Aphis fabae [15] = experiment: Insecticidal activity against Aphis fabae (black bean aphid) infested soybean tender shoots at 2.5 mg/L measured 48 hr post compound dose by modified FAO dip method
Mythimna separata [16] = experiment: Insecticidal activity against Mythimna separata (Oriental armyworm) fourth-instar larvae reared compound pre-treated corn leaves assessed as insect mortality at 200 mg/L measured 2 days post compound dose
Aphis fabae [17] = experiment: Insecticidal activity against Aphis fabae (black bean aphid) infested soybean tender shoots at 0.625 mg/L measured 48 hr post compound dose by modified FAO dip method
Aphis fabae [18] = experiment: Insecticidal activity against Aphis fabae (black bean aphid) infested soybean tender shoots at 10 mg/L measured 48 hr post compound dose by modified FAO dip method
Aphis fabae [19] = experiment: Insecticidal activity against Aphis fabae (black bean aphid) infested soybean tender shoots measured 48 hr post compound dose by modified FAO dip method; parameters: concentration or dose not given beside the values
Mythimna separata [20] = experiment: Insecticidal activity against Mythimna separata (Oriental armyworm) fourth-instar larvae reared compound pre-treated corn leaves assessed as insect mortality at 10 mg/L measured 2 days post compound dose
Mythimna separata [21] = experiment: Insecticidal activity against Mythimna separata (Oriental armyworm) fourth-instar larvae reared compound pre-treated corn leaves assessed as insect mortality at 2.5 mg/L measured 2 days post compound dose
Mythimna separata [22] = experiment: Insecticidal activity against Mythimna separata (Oriental armyworm) fourth-instar larvae reared compound pre-treated corn leaves assessed as insect mortality at 0.625 mg/L measured 2 days post compound dose

Structure (SMILES) | mortality at 0.006 µg/mL (Tetranychus cinnabarinus) | mortality at 2.5 µg/mL (Aphis fabae [15]) | mortality at 0.625 µg/mL (Aphis fabae [17]) | mortality at 10 µg/mL (Aphis fabae [18]) | mortality at 10 µg/mL (Mythimna separata [20]) | mortality at 2.5 µg/mL (Mythimna separata [21]) | mortality at 0.625 µg/mL (Mythimna separata [22]) | also measured
CCC(C)[C@H]1O[C@]2(CC[C@@H]1C)C[C@@H]1C[C@@H](C/C=C(\C)[C@@H](O[C@H]3C[C@H](OC)[C@@H](OC(=O)/C(=N\OC)c4ccccc4)[C@H](C)O3)[C@@H](C)/C=C/C=C3\CO[C@@H]4[C@H](O)C(C)=C[C@@H](C(=O)O1)[C@]34O)O2 (some centres undefined) | 38.7% |  |  |  |  |  |  | LC50 (Mythimna separata [1]): 0.35 µg/mL (≈ 0.392 µM); mortality at 1 µg/mL (Mythimna separata [2]): 100%; mortality at 0.5 µg/mL (Mythimna separata [3]): 80%; LC50 (Aphis fabae [4]): 0.12 µg/mL (≈ 0.135 µM); mortality at 0.125 µg/mL (Aphis fabae [5]): 3.3%; mortality at 0.03125 µg/mL (Mythimna separata [6]): 0%; mortality at 0.0625 µg/mL (Aphis fabae [7]): 0%; mortality at 0.125 µg/mL (Mythimna separata [8]): 6.3%; mortality at 0.0625 µg/mL (Mythimna separata [9]): 0%; mortality at 0.25 µg/mL (Mythimna separata [10]): 30.2%; mortality at 0.25 µg/mL (Aphis fabae [11]): 34.2%; mortality at 1 µg/mL (Aphis fabae [12]): 100%; mortality at 0.5 µg/mL (Aphis fabae [13]): 70%
CCC(C)[C@H]1O[C@]2(CC[C@@H]1C)C[C@@H]1C[C@@H](C/C=C(\C)[C@@H](O[C@H]3C[C@H](OC)[C@@H](OC(=O)Cc4ccccc4)[C@H](C)O3)[C@@H](C)/C=C/C=C3\CO[C@@H]4[C@H](O)C(C)=C[C@@H](C(=O)O1)[C@]34O)O2 (some centres undefined) | 14.3% |  |  |  |  |  |  | LC50 (Mythimna separata [1]): 0.204 µg/mL (≈ 0.24 µM); mortality at 0.03125 µg/mL (Aphis fabae [14]): 0%; mortality at 1 µg/mL (Mythimna separata [2]): 100%; mortality at 0.5 µg/mL (Mythimna separata [3]): 90.2%; LC90 (Aphis fabae [4]): 0.742 µg/mL (≈ 0.874 µM); LC50 (Aphis fabae [4]): 0.07 µg/mL (≈ 0.0824 µM); mortality at 0.125 µg/mL (Aphis fabae [5]): 31.2%; mortality at 0.03125 µg/mL (Mythimna separata [6]): 0%; mortality at 0.0625 µg/mL (Aphis fabae [7]): 3.3%; mortality at 0.125 µg/mL (Mythimna separata [8]): 20.5%; mortality at 0.0625 µg/mL (Mythimna separata [9]): 10.1%; mortality at 0.25 µg/mL (Mythimna separata [10]): 60.3%; mortality at 0.25 µg/mL (Aphis fabae [11]): 65.8%; mortality at 1 µg/mL (Aphis fabae [12]): 100%; mortality at 0.5 µg/mL (Aphis fabae [13]): 86.7%
CCC(C)[C@H]1O[C@]2(CC[C@@H]1C)C[C@@H]1C[C@@H](C/C=C(\C)[C@@H](OC(=O)c3cc(F)c(Cl)nc3Cl)[C@@H](C)/C=C/C=C3\CO[C@@H]4[C@H](O)C(C)=C[C@@H](C(=O)O1)[C@]34O)O2 (some centres undefined) | 7.7% | 38.2% | 8.3% | 66.9% |  |  |  | mortality at 200 µg/mL (Mythimna separata [16]): 50.9%
CCC(C)[C@H]1O[C@]2(CC[C@@H]1C)C[C@@H]1C[C@@H](C/C=C(\C)[C@@H](OC(=O)c3ccccc3OC)[C@@H](C)/C=C/C=C3\CO[C@@H]4[C@H](O)C(C)=C[C@@H](C(=O)O1)[C@]34O)O2 (some centres undefined) | 19.5% |  |  |  | 97% | 77.3% | 19.7% | mortality (Aphis fabae [19]): 68.6%
CCC(C)[C@H]1O[C@]2(CC[C@@H]1C)C[C@@H]1C[C@@H](C/C=C(\C)[C@@H](O[C@H]3C[C@H](OC)[C@@H](OC(=O)C(C)(C)CC)[C@H](C)O3)[C@@H](C)/C=C/C=C3\CO[C@@H]4[C@H](O)C(C)=C[C@@H](C(=O)O1)[C@]34O)O2 (some centres undefined) | 39.6% | 100% | 89.1% |  |  | 83.6% | 0% | 
CCC(C)[C@H]1O[C@]2(CC[C@@H]1C)C[C@@H]1C[C@@H](C/C=C(\C)[C@@H](O[C@H]3C[C@H](OC)[C@@H](OC(=O)c4ccc(F)cc4)[C@H](C)O3)[C@@H](C)/C=C/C=C3\CO[C@@H]4[C@H](O)C(C)=C[C@@H](C(=O)O1)[C@]34O)O2 (some centres undefined) | 9.9% | 100% | 97.1% | 100% | 55.8% | 16.7% | 0% | 
CCC(C)[C@H]1O[C@]2(CC[C@@H]1C)C[C@@H]1C[C@@H](C/C=C(\C)[C@@H](O[C@H]3C[C@H](OC)[C@@H](OC(=O)CC(C)(C)C)[C@H](C)O3)[C@@H](C)/C=C/C=C3\CO[C@@H]4[C@H](O)C(C)=C[C@@H](C(=O)O1)[C@]34O)O2 (some centres undefined) | 34.2% | 30.2% | 0% | 80.2% | 88.6% | 51.2% | 0% | 
CCC(C)[C@H]1O[C@]2(CC[C@@H]1C)C[C@@H]1C[C@@H](C/C=C(\C)[C@@H](O[C@H]3C[C@H](OC)[C@@H](OC(=O)c4ccc(Cl)cc4)[C@H](C)O3)[C@@H](C)/C=C/C=C3\CO[C@@H]4[C@H](O)C(C)=C[C@@H](C(=O)O1)[C@]34O)O2 (some centres undefined) | 32.3% |  |  |  | 93.9% | 16.7% | 0% | mortality (Aphis fabae [19]): 100%
